From patent US4581172A, “Substituted pyrimido[6,1-a]isoquinolin-4-ones,pyrimido[6,1-a]benzozepin-4-ones and pyrimido[6,1-a]benzodiazepin-4-ones useful for prevention of thromboses and treating hypertension” (Hoffmann-La Roche Inc., priority 1983, dated 1986)

Tests used:
[1] = system: Human platelet-rich plasma; test: Inhibition of collagen-initiated platelet aggregation (aggregometer method); assay type: cell-based; conditions: 10 min, human citrate plasma, 10 minutes at 37° C., aggregation initiated by collagen fibrils, hydrochlorides of the products tested, read-out: EC50 (maximum aggregation velocity)
Description: The maximum aggregation velocity was taken as the test parameter and the effective concentration (EC50) was ascertained from dosage-activity curves. Human platelet-rich plasma was obtained by centrifugation from citrated venous blood. The experiments were carried out with suspensions of the test substances in 0.9% sodium chloride. 0.18 ml of citrate plasma was treated with a 10 μl suspension of the test compounds and the mixture was incubated at 37° C. for 10 minutes, whereupon the aggregation was initiated by the addition of 10 μl of a suspension of collagen fibrils. The following EC50 values (in μM) were ascertained for the hydrochlorides of the products of certain Examples hereinafter: […]

[2] = Acute toxicity (LD50) p.o. in mice; conditions: mouse, in vivo, po, hydrochloride

EC50 [1] | Compound | LD50 [2]
100 nM | COc1cc2c(cc1OC)-c1cc(=Nc3c(C)cc(C)cc3C)n(C)c(=O)n1C(C)C2 (centres unmarked) [4(a), 9,10-dimethoxy-3,6-dimethyl-2-mesitylimino-2,3,6,7-tetrahydro-4H-pyrimido[6,1-a]isoquinolin-4-one] | 
120 nM | COc1cc2c(cc1OC)-c1cc(=Nc3c(C)cc(C)cc3C)n(C)c(=O)n1CCC2 [5(a), 10,11-dimethoxy-2-mesitylimino-3-methyl-2,3,7,8-tetrahydro-4H,6H-pyrimido[6,1-a]benzazepin-4-one] | 
 | COc1cc2c(cc1OC)C(C)Cn1c-2cc(=Nc2ccccc2C)n(C)c1=O (centres unmarked) [6a) 2.] | 2500 mg/kg
110 nM | COc1cc2c(cc1OC)-c1cc(Nc3c(C)cc(C)cc3C)nc(=O)n1C(C)C2 (centres unmarked) [Example 2(a), 6,7-dihydro-9,10-dimethoxy-2-mesitylamino-6-methyl-4H-pyrimido[6,1-a]isoquinolin-4-one] | 
600 nM | COc1cc2c(cc1OC)C(C)Cn1c-2cc(=Nc2c(C)cc(C)cc2C)n(C)c1=O (centres unmarked) [Example 3, 9,10-dimethoxy-3,7-dimethyl-2-mesitylimino-2,3,6,7-tetrahydro-4H-pyrimido[6,1-a]isoquinolin-4-one] | 
